Measured values from US20170056351A1, “COMPOSITION FOR INDUCING TUMOR IMMUNITY” (UNIVERSITY OF OCCUPATIONAL AND ENVIRONMENTAL HEALTH, JAPAN, priority 2014, published 2017).

Key:
[1] = tested on: 9L cells; assay: Cellular ROS levels after ionizing irradiation (DCFD, flow cytometry), 9L; type: cell-based, rat; conditions: for relative MFI of DCF fluorescence 12 hours after ionizing irradiation, timing study: 10 Gy
Procedure: Intracellular ROS production was evaluated using the oxidant-sensitive fluorescence probe DCFD and flow cytometry (Yamamori T, Yasui H, Yamazumi M, et al: Ionizing radiation induces mitochondrial reactive oxygen species production accompanied by upregulation of mitochondrial electron transport chain function and mitochondrial content under control of the cell cycle checkpoint. Free Radic Biol Med 53: 260-270, 2012.). The cells were seeded on a 100-mm culture dish, and using an X-ray irradiation apparatus (MBR-1520R; Hitachi, Tokyo, Japan) (0.67 Gy/min), the cells were then irradiated with a radiation of 10 Gy in a dark room. During the ionizing irradiation, the culture dish was maintained at a room temperature in a dark container. In the case of a 5-ALA and ionizing irradiation group (RT,12 h+ALA), the cells were treated with 1 mM 5-ALA for 4 hours, then, immediately after the treatment, the cells were irradiated with ionizing radiation, and were then incubated together with 10 μM DCFD at 37° C. for 15 minutes, followed by washing with PBS twice. Thereafter, as described above, the cells were analyzed using a flow cytometer (excitation: 488 nm; radiation: 525/50 nm band-pass filter). Control cells were not exposed to ionizing radiation or 5-ALA. In a 5-ALA group, the cells were treated with 1 mM 5-ALA for 4 hours, but were not exposed to ionizing radiation. The control cells and the cells of the 5-ALA group were treated with DCFD in the same manner as described above. In order to prevent the photoactivation of 5-ALA-induced PpIX and DCFD, all procedures were carried out in a dark room. The flow cytometric data were analyzed using FlowJo (Tree Star Inc., Ashland, Oreg., USA). The MFI of the DCF fluorescence in the cells, with respect to that in control cells, was calculated for each cell line.
The cells were seeded on a 100-mm culture dish, and were then exposed to an ionizing radiation of 10 Gy. The incubation time (4 h) of 1 mM 5-ALA was the same among individual groups, and three types of 5-ALA treatment times were initiated: i) 5-ALA treatment immediately before ionizing irradiation [RT+ALA (pre) group]; ii) 5-ALA treatment immediately after ionizing irradiation [RT+ALA (4 h) group]; and iii) 5-ALA treatment 8 hours after ionizing irradiation [RT+ALA (12 h) group]. In each group, twelve hours after the ionizing irradiation, the cells were incubated together with 10 μM DCFD at 37° C. for 15 minutes, and were then washed with PBS twice. Immediately after the washing, as described above, DCF fluorescence was analyzed using a flow cytometer. Control cells were not treated with ionizing radiation or 5-ALA. In a group involving only ionizing irradiation (RT), the cells were exposed to ionizing radiation, without performing 5-ALA treatments, and were then treated with DCFD twelve hours after the exposure to the ionizing radiation in the same manner as described above. All procedures were carried out in a dark room. The flow cytometric data were analyzed using FlowJo software. The MFI of the DCF fluorescence in the cells, with respect to that in control cells, was calculated for each cell line.

[2] = tested on: Iba1-positive macrophages in subcutaneously transplanted 9L gliosarcoma; assay: Pathologic examination of subcutaneous tumor, Iba1 staining of macrophages and microdensitometry; type: in vivo, rat
Procedure: After completion of the immobilization, all of the tumor samples were cut at the center of tumor in the longitudinal direction. The obtained fragments were each stained with hematoxylin and eosin (HE), and were also stained with Iba1 or CD68 for detection of macrophages. Briefly, the sample was bathed in water for pre-treatment (40 minutes, 95° C.), and the deparaffinized portion was then washed with KN Buffer (KN-09002; Pathology Institute Corp, Toyama, Japan). Subsequently, the fragment was incubated with goat polyclonal anti-Iba1 (1:3000, ab107159, Abcam) or anti-CD68 antibody (1:100, MCA-341R, AbD) for 30 minutes, and were further washed with KN Buffer. Subsequently, regarding Iba1, the fragment was incubated with Simple Stain™ MAX-PO (G) (H1301; Nichirei Bioscience Inc. Japan) for 30 minutes. Regarding CD68, the fragment was incubated with Envision+Dual Link HRP-label/polymer reagent (Dako: K4061) for 30 minutes. The resultant was finally washed with KN Buffer, and was then treated with diaminobenzidine (DAB) for 10 minutes for color development. […]
Moreover, the procedures of the previous study (Prall F, Maletzki C, Linnebacher M: Microdensitometry of osteopontin as an immunohistochemical prognostic biomarker in colorectal carcinoma tissue microarrays: potential and limitations of the method in ‘biomarker pathology’. Histopathology 61: 823-32, 2012.) were partially modified, and using public domain software, Image J (Wayne Rasband, National Institute of Mental Health, Bethesda, Md.), microdensitometry was carried out regarding immunohistochemical quantitative evaluation of Iba1 on a digital photomicrograph. […] In order to quantify the color signals of immunohistochemical DAB of Iba1, the image data of all samples were transferred into Image J, and were then converted to 8-bit grayscale images. […] The present inventors have defined the mean gray value (MGV) of all of the tumor samples in a control group (n=5) as a representative value, and the relative intensities of MGVs in other groups to the aforementioned representative value were then calculated.

[3] = tested on: U251 cells; assay: Intracellular localization of ROS 12 hours after ionizing radiation (DCFD, confocal laser scanning microscope), U251; type: cell-based, human; conditions: pre-treatment with 1 mM 5-ALA 4 hours before 10 Gy, 12 hours after irradiation, vs no 5-ALA
Procedure: Intracellular ROS production was detected by our method using DCFD and a confocal laser scanning microscope (LMS5 Pascal; Carl Zeiss, Jena, Germany) (Yamamoto J, Ogura S, Tanaka T, et al: Radiosensitizing effect of 5-aminolevulinic acid-induced protoporphyrin IX in glioma cells in vitro. Oncol Rep 27: 1748-1752, 2012.). Briefly, the cells were seeded in a fresh medium containing 1 mM 5-ALA in a 35-mm glass-bottom culture dish (Asahi Techno Glass, Tokyo, Japan), and were then incubated at 37° C. for 4 hours in a dark room. Thereafter, the cells were washed with PBS, and were then exposed to an ionizing radiation of 10 Gy. Twelve hours after the ionizing irradiation, the cells were washed with PBS twice, and were then incubated together with 10 μM DCFD for 15 minutes. Thereafter, the cells were washed with PBS twice, and immediately after the washing, the resulting cells were observed. DCFD fluorescence (excitation: 488 nm; radiation: 505-530 nm band-pass filter) was imaged on a confocal laser scanning microscope. All procedures were carried out in a dark room.

NCC(=O)CCC(=O)O [ALA, 5-aminolevulinic acid]
relative MFI of DCF fluorescence (cellular ROS) ([1]; 1 mM 5-ALA 4 hours, without ionizing irradiation, relative to control cells, average±SE): 1.19±0.07 | relative MFI of DCF fluorescence 12 hours after ionizing irradiation, timing study ([1]; 5-ALA treatment 8 hours after ionizing irradiation, RT+ALA (12 h) group): 1.58±0.11 | relative MFI of DCF fluorescence 12 hours after ionizing irradiation, timing study ([1]; 5-ALA treatment immediately after ionizing irradiation, RT+ALA (4 h) group): 1.57±0.05 | relative MFI of DCF fluorescence 12 hours after ionizing irradiation, timing study ([1]; 5-ALA treatment immediately before ionizing irradiation, RT+ALA (pre) group): 1.93±0.10 | relative MFI of DCF fluorescence (cellular ROS) ([1]; 12 hours after 10 Gy ionizing irradiation with 5-ALA pre-treatment (1 mM, 4 hours), p=0.009 vs RT 12 h): 1.91±0.19 | mean gray value (MGV) of Iba1, microdensitometry, versus other groups ([2]; ALA multiple-dose + ionizing radiation multiple-dose group, p<0.05 vs RT group, p<0.01 vs ALA group): significantly higher | Iba1-positive macrophages in subcutaneous tumor ([2]; ALA multiple-dose administration group, 16th day after treatment): mainly gathered to the surface of the subcutaneous tumor | gathering of Iba1-positive macrophages to surface and inside of subcutaneous tumor ([2]; ionizing radiation combined with ALA administration, 16th day after treatment): significantly observed | DCF fluorescence in the cytoplasm (confocal) [3]: apparently increased
